Laboratory results: patent publication US20110230431A1, “FOSFOMYCIN/TOBRAMYCIN COMBINATIONS FOR THE TREATMENT AND PREVENTION OF OPHTHALMIC, OTOLOGICAL AND DERMATOLOGICAL INFECTIONS” (Gilead Sciences, Inc., priority 2008, published 2011)
Like-named read-outs stand apart in the source and are kept apart here.

Experiments:
[1] = test system: P. aeruginosa; test: MIC by agar plate dilution method (CLSI); format: cell-based, Pseudomonas aeruginosa
Description: (§1) P. aeruginosa strains isolated from patients with cystic fibrosis (CF) were obtained from Children's Hospital and Regional Medical Center (Seattle, Wash.). Clinical isolates of Escherichia coli and Staphylococcus aureus were obtained from The Jones Group Laboratories (JMI; North Liberty, Iowa) and The Clinical Microbiology Institute (CMI; Wilsonville, Oreg.). P. aeruginosa 27853, S. aureus 29213, and E. coli 25922 served as quality control strains^1 and were obtained from The America Type Culture Collection (ATCC; Manassas, Va.). P. aeruginosa ATCC 27853, a fosfomycin and tobramycin susceptible strain, was used in macromolecular biosynthesis and tobramycin uptake experiments. Stock cultures were maintained at −80° C. in Cation-Adjusted Mueller-Hinton Broth (CAMHB) (Remel; Lenexa, Kans.) supplemented with 20% glycerol (VWR: West Chester, Pa.). Cultures for routine use were grown on tryptic soy agar plates+5% sheeps blood (PML Microbiologicals Inc.; Wilsonville, Oreg.) and stored at 4° C.
(§2) MICs were determined by the agar plate dilution method according to CLSI guidelines (National Committee for Clinical Laboratory Standards. M7-A6. 6th ed. Villanova (Pa.): NCCLS, 2003; M100-S14. Villanova (Pa.): NCCLS, 2004).

[2] = test system: S. aureus; test: MIC by agar plate dilution method (CLSI); format: cell-based, Staphylococcus aureus
Description: as §1, §2

[3] = test system: P. aeruginosa; format: cell-based, Pseudomonas aeruginosa
Protocol: Development of resistance after a single exposure to antibiotic was determined for both clinical and reference isolates of P. aeruginosa, S. aureus, and E. coli. Late Log-phase cultures were centrifuged at 1,400×g at room temperature for 20 min and the cell pellets resuspended in CAMHB. […] The culture plates were incubated at 37° C. for 48 h and the number of colonies on each plate was enumerated manually. The spontaneous mutation frequency (SMF) resulting in antibiotic resistance was calculated by dividing the number of bacteria growing at the defined antibiotic concentration by the number of bacteria in the inoculum (Martinex, J L, Antimicrob Agents Chemother 2000; 44 (1):1771-1777).

[4] = test system: P. aeruginosa ATCC 27853; test: Tobramycin uptake studies (3H-tobramycin); format: cell-based, Pseudomonas aeruginosa; conditions: 10 μg/mL fosfomycin, 3H-tobramycin 2.3 μg/mL, FIG. 7
Protocol: The effects of fosfomycin uptake on tobramycin uptake were determined by measuring uptake of ^3H-tobramycin. A single colony of P. aeruginosa ATCC 27853 was inoculated into 5 mL nutrient broth (NB) (Difco & BBL; Sparks, Md.) and grown overnight at 37° C. with shaking (250 rpm). […] Five milliliter volumes were filtered through 0.45 μm nitrocellulose membrane filters (Whatman Inc., Florham Park, N.J.), pre-soaked with 410 mM MgCl2 (VWR). […] Data were expressed in CPM and represent the mean±SD of four independent experiments. Statistical differences were evaluated by the Student's t-test.

[5] = P. aeruginosa ATCC 27853, 4× MIC
[6] = P. aeruginosa ATCC 27853, 8× MIC
[7] = P. aeruginosa ATCC 27853, 16× MIC

Compound | Frequency of Resistance 4× MIC [3, 5] | Frequency of Resistance 8× MIC [3, 6] | Frequency of Resistance 16× MIC [3, 7] | Frequency of Resistance 4× MIC ([3]; P. aeruginosa C002, 4× MIC) | Frequency of Resistance 8× MIC ([3]; P. aeruginosa C002, 8× MIC) | Frequency of Resistance 16× MIC ([3]; P. aeruginosa C002, 16× MIC) | Frequency of Resistance 4× MIC ([3]; P. aeruginosa C003, 4× MIC) | Frequency of Resistance 8× MIC ([3]; P. aeruginosa C003, 8× MIC) | Frequency of Resistance 16× MIC ([3]; P. aeruginosa C003, 16× MIC) | Frequency of Resistance 4× MIC ([3]; P. aeruginosa C013, 4× MIC) | Frequency of Resistance 8× MIC ([3]; P. aeruginosa C013, 8× MIC) | Frequency of Resistance 16× MIC ([3]; P. aeruginosa C013, 16× MIC) | Frequency of Resistance 4× MIC ([3]; P. aeruginosa C014, 4× MIC) | Frequency of Resistance 8× MIC ([3]; P. aeruginosa C014, 8× MIC) | Frequency of Resistance 16× MIC ([3]; P. aeruginosa C014, 16× MIC) | also measured
tobramycin sulfate | 3.0 × 10^−5 | 2.2 × 10^−7 | 1.6 × 10^−8 | 1.1 × 10^−5 | 1.1 × 10^−7 | 4.4 × 10^−8 | 4.2 × 10^−5 | 1.8 × 10^−7 | 7.2 × 10^−8 | 1.4 × 10^−6 | 3.7 × 10^−6 | 8.2 × 10^−7 | 1.3 × 10^−6 | 1.1 × 10^−7 | 7.9 × 10^−7 | MIC ([1]; P. aeruginosa ATCC 27853): 0.5 mg/L; MIC ([1]; P. aeruginosa C002): 0.5 mg/L; MIC ([1]; P. aeruginosa C003): 0.5 mg/L; MIC ([1]; P. aeruginosa C013): 0.5 mg/L; MIC ([1]; P. aeruginosa C014): 0.5 mg/L; MIC ([2]; S. aureus ATCC 29213): 0.25 mg/L; MIC ([2]; S. aureus C051): 0.25 mg/L; MIC ([2]; S. aureus C053): 0.25 mg/L; MIC ([2]; S. aureus C055): 0.25 mg/L; MIC ([2]; S. aureus C057): 0.5 mg/L
C[C@@H]1O[C@@H]1P(=O)(O)O [Fosfomycin, fosfomycin disodium] | 7.2 × 10^−4 | 1.1 × 10^−5 | 7.2 × 10^−5 | 6.5 × 10^−3 | 1.1 × 10^−4 | 4.6 × 10^−4 | 1.1 × 10^−6 | 9.0 × 10^−5 | 1.3 × 10^−4 | 9.2 × 10^−3 | 1.3 × 10^−5 | 1.3 × 10^−7 | 1.4 × 10^−4 | 1.3 × 10^−6 | 1.8 × 10^−6 | increase in 3H-tobramycin uptake relative to the no-fosfomycin control [4]: 170%; MIC ([1]; Pseudomonas aeruginosa, ATCC27853, P. aeruginosa ATCC 27853, read-out: MIC): 4 mg/L; MIC ([1]; Pseudomonas aeruginosa, P. aeruginosa C002, read-out: MIC): 4 mg/L; MIC ([1]; Pseudomonas aeruginosa, P. aeruginosa C003, read-out: MIC): 16 mg/L; MIC ([1]; Pseudomonas aeruginosa, P. aeruginosa C013, read-out: MIC): 32 mg/L; MIC ([1]; Pseudomonas aeruginosa, P. aeruginosa C014, read-out: MIC): 8 mg/L; MIC ([2]; Staphylococcus aureus, ATCC29213, S. aureus ATCC 29213, read-out: MIC): 2 mg/L; MIC ([2]; Staphylococcus aureus, S. aureus C051, read-out: MIC): 1 mg/L; MIC ([2]; Staphylococcus aureus, S. aureus C053, read-out: MIC): 1 mg/L; MIC ([2]; Staphylococcus aureus, S. aureus C055, read-out: MIC): 8 mg/L; MIC ([2]; Staphylococcus aureus, S. aureus C057, read-out: MIC): 2 mg/L
